The values below come from ChEMBL document CHEMBL1134873, “Synthesis and antiparasitic activity of 1H-benzimidazole derivatives” (Bioorg Med Chem Lett, 2002).

Experiment [1] concerns Trichinella spiralis. Kind of experiment: Percentage viability reduction of Trichinella spiralis muscle larvae after 3 days of incubation; No reduction observed. It counts as functional, organism-based.
The next experiment has as its system Giardia intestinalis. The experiment in a line: The compound was tested in vitro against the protozoa Giardia lamblia, for the inhibition of tubulin polymerization in rat brain. The experiment is classed as functional. Conditions: Giardia duodenalis.
The subject of the next experiment is Entamoeba histolytica. Kind of experiment: The compound was tested in vitro against the protozoa Entamoeba histolytica, for the inhibition of tubulin polymerization in rat brain. It counts as functional.
The subject of experiment [2] is Trichinella spiralis. The experiment in a line: Percentage viability reduction of Trichinella spiralis muscle larvae after 3 days of incubation. It counts as functional. Also noted: concentration or dose not given beside the values.

`CSc1nc2ccccc2[nH]1`: the Viability entry in the experiment with Trichinella spiralis [1] was “No reduction observed”. For the same molecule, the IC50 with Giardia intestinalis amounted to 45 nM; in the experiment with Entamoeba histolytica it was 393 nM.
For `Sc1nc2cc(Cl)ccc2[nH]1`, the results for the IC50 in the experiment on Giardia intestinalis and in the experiment with Entamoeba histolytica were 81 nM and 5 nM, respectively. In addition, the Viability with Trichinella spiralis [2] came to 13%.
For `COC(=O)Nc1nc2cc(Cl)c(Cl)cc2[nH]1`, in that order: 127 nM, 46 nM and 14%.
Consider `Cc1nc2ccccc2[nH]1`, for which the Viability result in the experiment with Trichinella spiralis [1] was “No reduction observed”. Further, the IC50 in the experiment with Giardia intestinalis was found to be 317 nM; in the experiment on Entamoeba histolytica, 7 nM.
Turning to `Clc1cc2nc[nH]c2cc1Cl`, the values for the IC50 with Giardia intestinalis and in the experiment on Entamoeba histolytica were 358 nM and 96 nM, respectively. This molecule yielded a Viability in the experiment on Trichinella spiralis [2] of 18%.
`CCCSc1ccc2[nH]c(NC(=O)OC)nc2c1` [ALBENDAZOLE] came in with a Viability in the experiment with Trichinella spiralis [2] of 34%.
Turning to `Nc1nc2cc(Cl)c(Cl)cc2[nH]1`, the figures for the IC50 in the experiment with Giardia intestinalis and in the experiment on Entamoeba histolytica were 218 nM and 59 nM, respectively. The same molecule registered a Viability in the experiment with Trichinella spiralis [2] of 2%.
For `Cc1nc2cc(Cl)ccc2[nH]1`, the IC50 stood at 156 nM with Giardia intestinalis and 84 nM in the experiment on Entamoeba histolytica. The Viability with Trichinella spiralis [2] is reported as 14%.
With `Cc1nc2cc(Cl)c(Cl)cc2[nH]1`, the IC50 was 65 nM with Giardia intestinalis and 25 nM in the experiment with Entamoeba histolytica. In the experiment with Trichinella spiralis [2], this molecule had a Viability of 8%.
Turning to `Clc1ccc2[nH]cnc2c1`, the IC50 amounted to 282 nM in the experiment with Giardia intestinalis and 39 nM in the experiment on Entamoeba histolytica. This molecule also yielded a Viability in the experiment with Trichinella spiralis [2] of 27%.
As to `Nc1nc2ccc(Cl)cc2[nH]1`, the IC50 with Giardia intestinalis turned out to be 30 nM; in the experiment on Entamoeba histolytica, 125 nM. The Viability with Trichinella spiralis [2] is listed as 17%.
With `COC(=O)Nc1nc2ccccc2[nH]1` [CARBENDAZIM], the Viability entry with Trichinella spiralis [1] is “No reduction observed”. Also, the figures for the IC50 with Giardia intestinalis and in the experiment on Entamoeba histolytica were 57 nM and 204 nM, respectively.
Take `Sc1nc2ccccc2[nH]1` [2-MERCAPTOBENZIMIDAZOLE]: the IC50 with Giardia intestinalis was determined as 40 nM; in the experiment with Entamoeba histolytica, 133 nM. Moreover, the Viability with Trichinella spiralis [2] is listed as 11%.
For the molecule `Sc1nc2cc(Cl)c(Cl)cc2[nH]1`, the IC50 in the experiment on Giardia intestinalis is 78 nM; with Entamoeba histolytica, 55 nM. Further, the Viability with Trichinella spiralis [2] came out at 23%.
With `CSc1nc2cc(Cl)ccc2[nH]1`, the 50% inhibitory concentration (IC50) in the experiment on Giardia intestinalis was 5 nM; in the experiment with Entamoeba histolytica, 192 nM. The molecule also displayed a Viability in the experiment on Trichinella spiralis [2] of 15%.
The matching figures for `Nc1nc2ccccc2[nH]1`: 1900 nM, 114 nM and 9%.
As to `COC(=O)Nc1nc2cc(Cl)ccc2[nH]1`, the half-maximal inhibitory concentration (IC50) in the experiment on Giardia intestinalis was determined as 66 nM; in the experiment on Entamoeba histolytica, 350 nM. Also, in the experiment with Trichinella spiralis [2], the Viability is given as 19%.
Turning to `c1ccc2[nH]cnc2c1` [BENZIMIDAZOLE], in the experiment with Trichinella spiralis [1], the Viability entry is “No reduction observed”. Further, the half-maximal inhibitory concentration (IC50) is 8 nM with Giardia intestinalis and 42 nM with Entamoeba histolytica.
`CSc1nc2cc(Cl)c(Cl)cc2[nH]1`: the IC50 worked out at 227 nM in the experiment with Giardia intestinalis and 356 nM in the experiment on Entamoeba histolytica. The Viability in the experiment with Trichinella spiralis [2] came to 17%.
